Results from PubChem BioAssay AID1918947 (Molecular Pharmacology Branch, DTP, NCI, 2023).
Values joined by “and” are separate entries in the source; they are usually repeats but may differ in a detail not shown here. Identical values can stand only once. One block for each compound: values may come before it.

Test system: A498 complex spheroid viability
Experiment: Anticancer human tumor A498 cell line growth inhibition;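 further: spheroids exposed to agents for seven days before readout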;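 on viability, T/C: 100% = DMSO vehicle-treated spheroids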
Settings: for viability, T/C: stronger effect = lower value
How it was run: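 Multicellular complex spheroids of tumor cells with human endothelial cells (HUVEC) and mesenchymal stem cells; the LSD1 inhibitor iadademstat was combined with standard-of-care or investigational agents. Top concentration at or near clinical Cmax, half-log dilutions; final DMSO ≤0.25%.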

[1] = curve of first compound, second compound 0.1 µM
[2] = curve of first compound, second compound 0.316 µM
[3] = curve of first compound, second compound 1 µM
[4] = curve of first compound, second compound 3.16 µM
[5] = curve of first compound, second compound 10 µM
[6] = second compound 0.1 µM, first compound 0.00949 µM
[7] = second compound 0.1 µM, first compound 0.03 µM
[8] = second compound 0.1 µM, first compound 0.0949 µM
[9] = second compound 0.1 µM, first compound 0.3 µM
[10] = second compound 0.1 µM, first compound 0.949 µM
[11] = second compound 0.1 µM, first compound 3 µM
[12] = second compound 0.316 µM, first compound 0.00949 µM
[13] = second compound 0.316 µM, first compound 0.03 µM
[14] = second compound 0.316 µM, first compound 0.0949 µM
[15] = second compound 0.316 µM, first compound 0.3 µM
[16] = second compound 0.316 µM, first compound 0.949 µM
[17] = second compound 0.316 µM, first compound 3 µM
[18] = second compound 1 µM, first compound 0.00949 µM
[19] = second compound 1 µM, first compound 0.03 µM
[20] = second compound 1 µM, first compound 0.0949 µM
[21] = second compound 1 µM, first compound 0.3 µM
[22] = second compound 1 µM, first compound 0.949 µM
[23] = second compound 1 µM, first compound 3 µM
[24] = second compound 3.16 µM, first compound 0.00949 µM
[25] = second compound 3.16 µM, first compound 0.03 µM
[26] = second compound 3.16 µM, first compound 0.0949 µM
[27] = second compound 3.16 µM, first compound 0.3 µM
[28] = second compound 3.16 µM, first compound 0.949 µM
[29] = second compound 3.16 µM, first compound 3 µM
[30] = second compound 10 µM, first compound 0.00949 µM
[31] = second compound 10 µM, first compound 0.03 µM
[32] = second compound 10 µM, first compound 0.0949 µM
[33] = second compound 10 µM, first compound 0.3 µM
[34] = second compound 10 µM, first compound 0.949 µM
[35] = second compound 10 µM, first compound 3 µM

Structure (SMILES): Nc1ccccc1NC(=O)c1ccc(CNC(=O)OCc2cccnc2)cc1 + NC1CCC(NC2CC2c2ccccc2)CC1
- IC50 [1]: 203 nM
- IC50 [2]: 222 nM
- IC50 [3]: 215 nM
- IC50 [4]: 177 nM
- IC50 [5]: 214 nM
- viability, T/C [6]: 80.6%
- viability, T/C [7]: 76%
- viability, T/C [8]: 65.8%
- viability, T/C [9]: 42.1%
- viability, T/C [10]: 15.4%
- viability, T/C [11]: 1.76%
- viability, T/C [12]: 86.7%
- viability, T/C [13]: 83.8%
- viability, T/C [14]: 66.4%
- viability, T/C [15]: 44.6%
- viability, T/C [16]: 17%
- viability, T/C [17]: 1.4%
- viability, T/C [18]: 76.8%
- viability, T/C [19]: 79.6%
- viability, T/C [20]: 68.4%
- viability, T/C [21]: 40.9%
- viability, T/C [22]: 17.2%
- viability, T/C [23]: 1.13%
- viability, T/C [24]: 73.6%
- viability, T/C [25]: 67.3%
- viability, T/C [26]: 59.8%
- viability, T/C [27]: 42.7%
- viability, T/C [28]: 16%
- viability, T/C [29]: 0.8%
- viability, T/C [30]: 62%
- viability, T/C [31]: 59.3%
- viability, T/C [32]: 57.4%
- viability, T/C [33]: 47%
- viability, T/C [34]: 16.3%
- viability, T/C [35]: 0.91%

- IC50 (curve of compound): 164 nM and 115 nM
Structure (SMILES): COc1ccc([C@@H](O)c2cc(-c3ncnc4cc(N5CCOCC5)ccc34)c(F)cc2Cl)nn1
- viability, T/C (compound 0.0316 µM): 84.8% and 74.3%
- viability, T/C (compound 0.1 µM): 62.5% and 53.8%
- viability, T/C (compound 0.316 µM): 33.1% and 28.8%
- viability, T/C (compound 1 µM): 19.1% and 18.4%
- viability, T/C (compound 3.16 µM): 10.7% and 9.71%
- viability, T/C (compound 10 µM): 6.93% and 6.16%

Structure (SMILES): CCN(c1cc(-c2ccc(CN3CCOCC3)cc2)cc(C(=O)NCc2c(C)cc(C)[nH]c2=O)c1C)C1CCOCC1 + NC1CC1c1ccc(-c2cccc(O)c2)cc1
- IC50 [1]: > 3000 nM
- IC50 [2]: > 3000 nM
- IC50 [3]: > 3000 nM
- IC50 [4]: > 3000 nM
- IC50 [5]: > 3000 nM
- viability, T/C [6]: 98.8%
- viability, T/C [7]: 112%
- viability, T/C [8]: 98.9%
- viability, T/C [9]: 95.1%
- viability, T/C [10]: 103%
- viability, T/C [11]: 96.7%
- viability, T/C [12]: 108%
- viability, T/C [13]: 106%
- viability, T/C [14]: 108%
- viability, T/C [15]: 107%
- viability, T/C [16]: 101%
- viability, T/C [17]: 104%
- viability, T/C [18]: 100%
- viability, T/C [19]: 107%
- viability, T/C [20]: 97.6%
- viability, T/C [21]: 94.7%
- viability, T/C [22]: 98.4%
- viability, T/C [23]: 95.1%
- viability, T/C [24]: 94%
- viability, T/C [25]: 92.6%
- viability, T/C [26]: 89%
- viability, T/C [27]: 90.1%
- viability, T/C [28]: 93.8%
- viability, T/C [29]: 100%
- viability, T/C [30]: 96.6%
- viability, T/C [31]: 97.2%
- viability, T/C [32]: 94.9%
- viability, T/C [33]: 93.1%
- viability, T/C [34]: 90.6%
- viability, T/C [35]: 91%

Structure (SMILES): NS(=O)(=O)OCC1CC(n2ccc3c(NC4CCc5ccccc54)ncnc32)CC1O (centres undefined) + NC1CC1c1ccc(-c2cccc(O)c2)cc1
- IC50 [1]: 57.2 nM
- IC50 [2]: 71 nM
- IC50 [3]: 78.6 nM
- IC50 [4]: 76.4 nM
- IC50 [5]: 46.3 nM
- viability, T/C [6]: 99%
- viability, T/C [7]: 70.4%
- viability, T/C [8]: 32.4%
- viability, T/C [9]: 23.4%
- viability, T/C [10]: 15.9%
- viability, T/C [11]: 12.4%
- viability, T/C [12]: 100%
- viability, T/C [13]: 78.5%
- viability, T/C [14]: 39.6%
- viability, T/C [15]: 21.4%
- viability, T/C [16]: 15.6%
- viability, T/C [17]: 12%
- viability, T/C [18]: 96.2%
- viability, T/C [19]: 83.2%
- viability, T/C [20]: 41.1%
- viability, T/C [21]: 25.9%
- viability, T/C [22]: 16.1%
- viability, T/C [23]: 12.8%
- viability, T/C [24]: 101%
- viability, T/C [25]: 73.7%
- viability, T/C [26]: 43.5%
- viability, T/C [27]: 27.7%
- viability, T/C [28]: 19%
- viability, T/C [29]: 14.9%
- viability, T/C [30]: 90.8%
- viability, T/C [31]: 53.2%
- viability, T/C [32]: 40.3%
- viability, T/C [33]: 29.9%
- viability, T/C [34]: 18.4%
- viability, T/C [35]: 15%

Structure (SMILES): CC1(C)CCC(CN2CCN(c3ccc(C(=O)NS(=O)(=O)c4ccc(NCC5CCOCC5)c([N+](=O)[O-])c4)c(Oc4cnc5[nH]ccc5c4)c3)CC2)=C(c2ccc(Cl)cc2)C1 + NC1CC1c1ccc(-c2cccc(O)c2)cc1
- IC50 [1]: 4510 nM
- IC50 [2]: 4160 nM
- IC50 [3]: 4080 nM
- IC50 [4]: 3700 nM
- IC50 [5]: 3840 nM
- viability, T/C (second compound 0.1 µM, first compound 0.0316 µM): 109%
- viability, T/C (second compound 0.1 µM, first compound 0.1 µM): 106%
- viability, T/C (second compound 0.1 µM, first compound 0.316 µM): 102%
- viability, T/C (second compound 0.1 µM, first compound 1 µM): 93.1%
- viability, T/C (second compound 0.1 µM, first compound 3.16 µM): 69.6%
- viability, T/C (second compound 0.1 µM, first compound 10 µM): 7.58%
- viability, T/C (second compound 0.316 µM, first compound 0.0316 µM): 108%
- viability, T/C (second compound 0.316 µM, first compound 0.1 µM): 112%
- viability, T/C (second compound 0.316 µM, first compound 0.316 µM): 96.6%
- viability, T/C (second compound 0.316 µM, first compound 1 µM): 88.2%
- viability, T/C (second compound 0.316 µM, first compound 3.16 µM): 66.7%
- viability, T/C (second compound 0.316 µM, first compound 10 µM): 5.66%
- viability, T/C (second compound 1 µM, first compound 0.0316 µM): 103%
- viability, T/C (second compound 1 µM, first compound 0.1 µM): 99.6%
- viability, T/C (second compound 1 µM, first compound 0.316 µM): 98.9%
- viability, T/C (second compound 1 µM, first compound 1 µM): 84.3%
- viability, T/C (second compound 1 µM, first compound 3.16 µM): 64.1%
- viability, T/C (second compound 1 µM, first compound 10 µM): 6.2%
- viability, T/C (second compound 3.16 µM, first compound 0.0316 µM): 100%
- viability, T/C (second compound 3.16 µM, first compound 0.1 µM): 91.4%
- viability, T/C (second compound 3.16 µM, first compound 0.316 µM): 98.9%
- viability, T/C (second compound 3.16 µM, first compound 1 µM): 86.1%
- viability, T/C (second compound 3.16 µM, first compound 3.16 µM): 57.2%
- viability, T/C (second compound 3.16 µM, first compound 10 µM): 5.72%
- viability, T/C (second compound 10 µM, first compound 0.0316 µM): 91.9%
- viability, T/C (second compound 10 µM, first compound 0.1 µM): 91.6%
- viability, T/C (second compound 10 µM, first compound 0.316 µM): 86.6%
- viability, T/C (second compound 10 µM, first compound 1 µM): 77.8%
- viability, T/C (second compound 10 µM, first compound 3.16 µM): 59.9%
- viability, T/C (second compound 10 µM, first compound 10 µM): 7.06%

- IC50 (curve of compound): > 100 nM
Structure (SMILES): Cn1ncnc1C1c2n[nH]c(=O)c3cc(F)cc(c23)NC1c1ccc(F)cc1 (centres undefined)
- viability, T/C (compound 0.000316 µM): 98.4% and 110%
- viability, T/C (compound 0.001 µM): 99.4% and 107%
- viability, T/C (compound 0.00316 µM): 97.5% and 102%
- viability, T/C (compound 0.01 µM): 106% and 103%
- viability, T/C (compound 0.0316 µM): 95% and 99%
- viability, T/C (compound 0.1 µM): 101% and 94.5%

Structure (SMILES): Nc1ccn(C2OC(CO)C(O)C2(F)F)c(=O)n1 (centres undefined) + NC1CC1c1ccc(-c2cccc(O)c2)cc1
- IC50 [1]: < 0.949 nM
- IC50 [2]: < 0.949 nM
- IC50 [3]: < 0.949 nM
- IC50 [4]: < 0.949 nM
- IC50 [5]: < 0.949 nM
- viability, T/C (second compound 0.1 µM, first compound 0.000949 µM): 20.6%
- viability, T/C (second compound 0.1 µM, first compound 0.003 µM): 28.4%
- viability, T/C [6]: 98.4%
- viability, T/C [7]: 36.4%
- viability, T/C [8]: 35.8%
- viability, T/C [9]: 31.5%
- viability, T/C (second compound 0.316 µM, first compound 0.000949 µM): 22.6%
- viability, T/C (second compound 0.316 µM, first compound 0.003 µM): 28.6%
- viability, T/C [12]: 112%
- viability, T/C [13]: 33.9%
- viability, T/C [14]: 35.3%
- viability, T/C [15]: 32.3%
- viability, T/C (second compound 1 µM, first compound 0.000949 µM): 22.5%
- viability, T/C (second compound 1 µM, first compound 0.003 µM): 26.8%
- viability, T/C [18]: 105%
- viability, T/C [19]: 35.5%
- viability, T/C [20]: 29.3%
- viability, T/C [21]: 30.6%
- viability, T/C (second compound 3.16 µM, first compound 0.000949 µM): 22.6%
- viability, T/C (second compound 3.16 µM, first compound 0.003 µM): 28.3%
- viability, T/C [24]: 94.6%
- viability, T/C [25]: 36.1%
- viability, T/C [26]: 30.3%
- viability, T/C [27]: 28.1%
- viability, T/C (second compound 10 µM, first compound 0.000949 µM): 23.5%
- viability, T/C (second compound 10 µM, first compound 0.003 µM): 28.2%
- viability, T/C [30]: 93.5%
- viability, T/C [31]: 40.7%
- viability, T/C [32]: 32.9%
- viability, T/C [33]: 29.4%
